In the NIST ThermoML archive (doi:10.1021/je100484n):

Tests used:
[1] = 101 kPa, Liquid
[2] = refractive index (Na D-line) (dimensionless); details: 101.33 kPa, Liquid
[3] = refractive index (Na D-line) (dimensionless); xn = mol fraction of the nth substance listed; details: 101 kPa, Liquid
[4] = xn = mol fraction of the nth substance listed; details: 101 kPa, Liquid, x2 = 0

CC(C)(C)O [2-methylpropan-2-ol]
Details	mass density, 303.15 K [kg/m3]	mass density, 308.15 K [kg/m3]	mass density, 313.15 K [kg/m3]	mass density, 318.15 K [kg/m3]	mass density, 323.15 K [kg/m3]	refractive index, 303.15 K	refractive index, 308.15 K	refractive index, 313.15 K	refractive index, 318.15 K	refractive index, 323.15 K
[1]	775.412	770.193	764.884	759.488	754.015	–	–	–	–	–
[2]	–	–	–	–	–	1.38222	1.37947	1.37667	1.37384	1.37097

CC(C)(C)O [2-methylpropan-2-ol] + NC1CCCCC1
[3], x1 = 1
Details	refractive index
303.15 K	1.38222
308.15 K	1.37947
313.15 K	1.37667
318.15 K	1.37384
323.15 K	1.37097

NC1CCCCC1 [cyclohexylamine]
[2]
Details	refractive index
303.15 K	1.45375
308.15 K	1.45114
313.15 K	1.44856
318.15 K	1.44599
323.15 K	1.44336

NC1CCCCC1 [cyclohexylamine] + CC(C)(C)O
refractive index, [3]
Details	303.15 K	308.15 K	313.15 K	318.15 K	323.15 K
x2 = 0	1.45375	1.45114	1.44856	1.44599	1.44336
x2 = 0.0508	1.45149	1.44888	1.44629	1.44368	1.44108
x2 = 0.1002	1.44914	1.44655	1.44395	1.44132	1.43876
x2 = 0.1502	1.44664	1.44404	1.44142	1.43884	1.43629
x2 = 0.2001	1.44406	1.44146	1.43888	1.4363	1.43371
x2 = 0.3005	1.43846	1.43586	1.43328	1.43068	1.42812
x2 = 0.3991	1.4325	1.42991	1.42732	1.42471	1.42218
x2 = 0.4996	1.42579	1.42321	1.42064	1.41804	1.41553
x2 = 0.5998	1.41855	1.41598	1.41339	1.41077	1.40818
x2 = 0.6997	1.41063	1.40805	1.40544	1.40284	1.40018
x2 = 0.7999	1.40191	1.39934	1.39676	1.39405	1.3914
x2 = 0.8712	1.39554	1.39281	1.39012	1.38734	1.38459
x2 = 0.8992	1.39261	1.38996	1.38723	1.3845	1.38176
x2 = 0.9504	1.38751	1.3848	1.38207	1.37923	1.37642

NC1CCCCC1 [cyclohexylamine] + CCCCCCC
refractive index, [3]
Details	303.15 K	308.15 K	313.15 K	318.15 K	323.15 K
x1 = 0.0501	1.38508	1.38246	1.37983	1.37719	1.37451
x1 = 0.1002	1.38768	1.38507	1.38246	1.37983	1.37717
x1 = 0.1501	1.39038	1.38778	1.38516	1.38255	1.37991
x1 = 0.2305	1.39503	1.39245	1.38984	1.38719	1.38449
x1 = 0.3004	1.3993	1.39673	1.3941	1.39149	1.38874
x1 = 0.401	1.40584	1.40324	1.40059	1.39797	1.39527
x1 = 0.4497	1.40915	1.40655	1.40392	1.40129	1.39851
x1 = 0.5597	1.41708	1.41446	1.41182	1.40915	1.40647
x1 = 0.6001	1.42001	1.41739	1.41478	1.41215	1.40951
x1 = 0.6498	1.4238	1.4212	1.41859	1.41595	1.41327
x1 = 0.6994	1.42771	1.4251	1.42248	1.41981	1.41719
x1 = 0.7999	1.43588	1.43327	1.43065	1.428	1.42528
x1 = 0.8992	1.44452	1.44189	1.43928	1.43667	1.43405
x1 = 1	1.45375	1.45114	1.44856	1.44599	1.44336

CCCCCCC [heptane]
Details	mass density, 303.15 K [kg/m3]	mass density, 308.15 K [kg/m3]	mass density, 313.15 K [kg/m3]	mass density, 318.15 K [kg/m3]	mass density, 323.15 K [kg/m3]	refractive index, 303.15 K	refractive index, 308.15 K	refractive index, 313.15 K	refractive index, 318.15 K	refractive index, 323.15 K
[1]	675.229	670.941	666.621	662.273	657.896	–	–	–	–	–
[2]	–	–	–	–	–	1.38259	1.37995	1.37731	1.37463	1.37197

CCCCCCC [heptane] + CC(C)(C)O
[4]
Details	mass density [kg/m3]
303.15 K	675.229
308.15 K	670.941
313.15 K	666.621
318.15 K	662.273
323.15 K	657.896

[3], x2 = 0
Details	refractive index
303.15 K	1.38259
308.15 K	1.37995
313.15 K	1.37731
318.15 K	1.37463
323.15 K	1.37197

CCCCCCC [heptane] + NC1CCCCC1
[3], x2 = 0
Details	refractive index
303.15 K	1.38259
308.15 K	1.37995
313.15 K	1.37731
318.15 K	1.37463
323.15 K	1.37197
